Peptide text beside a SMILES is read from it. * marks the point of attachment. Butanoyl(4-pyren-1-yl) = O=C(CCCc1ccc2ccc3cccc4ccc1c2c34)*; Acetyl(1-naphthyl) = O=C(Cc1cccc2ccccc12)*
Experiments:
[1] = Artificial enzyme (hemin) activity assay, oxidation of pyrogallol by H2O2; assay type: biochemical
Description: Activity assay: Using the oxidation of pyrogallol (10.0 mM) by H2O2 (40.0 mM) as a model reaction and fixing the total concentration of Hemin to 5 μM in the mixture, we examined the activity of Hemin by monitoring the absorbance (420 nm) of purpurogallin, the product of Hemin-catalyzed oxidation of pyrogallol. The catalytic reaction course of the artificial enzyme was measured by monitoring the increase in absorbance along with time change. The absorbance increase in the first minute was defined to be the initial rate. The Lineweaver-Burk plots constructed by the reaction initial rates at different pyrogallol concentrations were used to estimate their kinetic constant values. The other substrates, including o-phenyldiamine (product absorption at 450 nm) and o-aminophenol (product absorption at 430 nm), were employed under the same procedure of pyrogallol.
Using the oxidation of pyrogallol as a model reaction and fixing the total concentration of Hemin to be 5 μM in the mixture, we obtained the catalytic rate of Hemin by monitoring the changes of the absorbance of purpurogallin, the product of Hemin-catalyzed oxidation of pyrogallol. […] The Lineweaver-Burk plots constructed by the reaction initial rates at different pyrogallol concentrations gave the activity of the artificial enzyme. The kinetics of the catalysis of artificial enzyme follows Michaelis-Menten equation, which indicated successful design and generation of an artificial peroxidase by encapsulating hemin into hydrogel. […] Two factors likely contribute to the high activity of Hemin(Phe) in pH 7,4 buffer: (i) localization of hemin on the nanofibers preserves the catalytic species—monomeric hemin; (ii) the mesoporous structure in hydrogel facilitates the substrate across the hydrogel network to access the hemin in the hydrogel.

[2] = Hydrogelation in water (ability, concentration, pH); assay type: physicochemical
Description: Typically, after 2 mg of 1 was suspended in 1.0 mL of water, the increase of temperature to 80° C. gave a clear solution. Cooling the solution to room temperature led to a slightly opaque hydrogel (Gel I, FIG. 20A). Similar procedure afforded the hydrogel of 2 (Gel II, FIG. 20B).

[3] = Solubility in water of pentapeptide derivatives; assay type: physicochemical
Text: Most of the compounds can gel water under appropriate pH. When the pH becomes higher than the listed value, the gel tends to become a clear solution, while a lower pH always leads to precipitation rather than homogeneous gel formation. GAGAS (SEQ ID No. 1), the epitope with the least bulk side chains, appears to be quite hydrophilic in water.
However, it is still not a good candidate as a hydrophilic tail in a hydrogelator. […] Hydrogel by Fmoc-GVGVP can be obtained by carefully adjusting the pH to 4.8, with the hydrogel not being thermal-reversible. […] Upon heating, it also melts. All three compounds, with VPGVG as the hydrophilic part, fail to gel water at the tested condition. They all show sharp solubility changes with pH and low melting points.

acid phosphatase = assay: Visual hydrogelation assay for enzyme inhibitors (conversion of 9 to 10); assay type: biochemical; conditions: pH=6.0, 37° C., solution-to-gel transition after 30 minutes
Text: FIG. 6 illustrates the design of the visual assay. The precursor, which acts as the substrate of an enzyme, transforms into a hydrogelator when the enzyme catalyzes its conversion. Then, the self-assembly of the hydrogelators in water induces the formation of hydrogel. When inhibitors competitively bind with the active site of the enzyme and block the conversion of the precursor catalyzed by the enzyme, no hydrogel forms. Therefore, the macroscopic solution-to-gel transition (which can be observed visually) of the solution of the precursor reports the inactivation of the enzyme by the inhibitors.
This approach has a unique feature—it enlists water molecules as part of the reporting system. In addition, no spectrometer is required for observing the solution-to-gel phase transition. This simple and inexpensive method may be useful, not only for screening the inhibitors but also, for detecting the presence of enzymes when appropriate precursors are used. To verify the feasibility of the design shown in FIG. 6, a simple amino acid derivative (9), which can be converted into a hydrogelator (10) by dephosphorylation, was used to screen the inhibitors for an acid phosphatase.
Since the acid phosphatase catalyzes the conversion of 9 to 10 and leads to hydrogelation at a pH=6.0 and 37° C., the event of hydrogelation can indicate the activity of inhibitors for the acid phosphatase itself. Pamidronate disodium, Zn^2+, and sodium orthovanadate (Na3VO4) were chosen to estimate their minimum inhibition concentrations for the acid phosphatase. The three compounds were first mixed with the enzyme at a series of concentrations, respectively, followed by the addition of 9 to the solutions 10 minutes after mixing. After an additional 30 minutes of incubation, the solution-to-gel phase transition indicates the minimum inhibition concentration of the compounds. From the changes of rows 2, 3, and 4 in FIG. 7, the minimum inhibition concentrations of Pamidronate disodium, Zn^2+, and sodium orthovanadate (Na3VO4) for the acid phosphatase were determined to be 33 mM, 0.33 mM, and 3.3 mM, respectively.

[4] = test system: C600 (β-lactamase negative E. coli control); assay: Cell lysate added to solution of precursor 3, sample A; assay type: biochemical; conditions: precursor 3 to form 1 after 6 hours
Description: (§1) To evaluate whether precursor 3 would respond to β-lactamases in bacteria, solution of precursor 3 was treated with sonicated lysates of E. coli.

[5] = test system: CTX-M13 (extended-spectrum β-lactamase); assay: Cell lysate added to solution of precursor 3, sample B; assay type: biochemical, E. coli
Description: as §1

[6] = biological target: T1, CTX-M14 (extended-spectrum β-lactamase) (Escherichia coli, UniProt Q9L5C7); assay: Cell lysate added to solution of precursor 3, sample C; assay type: biochemical, E. coli
T1 construct: endogenous in cells; host or cells: E. coli (sonicated lysate)
Description: as §1

[7] = test system: JP995 (β-lactamase negative E. coli control); assay: Cell lysate added to solution of precursor 3, sample D; assay type: biochemical; conditions: precursor 3 to form 1 after 6 hours
Description: as §1

[8] = biological target: T2, SHV-1 (broad-spectrum β-lactamase) (Escherichia coli, UniProt P0AD63); assay: Cell lysate added to solution of precursor 3, sample E; assay type: biochemical, E. coli; conditions: lysate SHV-1
T2 construct: endogenous in cells; host or cells: E. coli (sonicated lysate)
Description: as §1

[9] = biological target: T3, TEM-1 (broad-spectrum β-lactamase) (Escherichia coli, UniProt P62593); assay type: biochemical, E. coli; conditions: lysate TEM-1
T3 construct: endogenous in cells; host or cells: E. coli (sonicated lysate)
Description: as §1

[10] = Solution of precursor 3, sample G (only water, no enzyme); assay type: biochemical; conditions: precursor 3 to form 1 after 6 hours
Description: as §1

[11] = precursor 3 to form 1 after 6 hours

T3 sequence (P62593 24-286 limits assumed): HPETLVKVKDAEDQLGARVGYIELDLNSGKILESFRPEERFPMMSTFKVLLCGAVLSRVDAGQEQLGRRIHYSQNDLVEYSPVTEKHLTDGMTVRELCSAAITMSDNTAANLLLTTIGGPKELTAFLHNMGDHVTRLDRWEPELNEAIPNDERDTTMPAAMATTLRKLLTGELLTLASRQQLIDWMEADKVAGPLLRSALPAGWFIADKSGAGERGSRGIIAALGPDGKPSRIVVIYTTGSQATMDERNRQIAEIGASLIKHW
T2 sequence (P0AD63 22-286): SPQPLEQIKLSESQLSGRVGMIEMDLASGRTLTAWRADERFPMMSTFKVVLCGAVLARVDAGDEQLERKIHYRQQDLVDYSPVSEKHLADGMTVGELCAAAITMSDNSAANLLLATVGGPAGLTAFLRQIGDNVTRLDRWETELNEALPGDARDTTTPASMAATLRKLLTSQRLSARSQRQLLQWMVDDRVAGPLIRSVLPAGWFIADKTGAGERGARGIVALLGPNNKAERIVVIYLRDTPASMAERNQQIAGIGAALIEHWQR
T1 sequence (Q9L5C7 entry or part of it): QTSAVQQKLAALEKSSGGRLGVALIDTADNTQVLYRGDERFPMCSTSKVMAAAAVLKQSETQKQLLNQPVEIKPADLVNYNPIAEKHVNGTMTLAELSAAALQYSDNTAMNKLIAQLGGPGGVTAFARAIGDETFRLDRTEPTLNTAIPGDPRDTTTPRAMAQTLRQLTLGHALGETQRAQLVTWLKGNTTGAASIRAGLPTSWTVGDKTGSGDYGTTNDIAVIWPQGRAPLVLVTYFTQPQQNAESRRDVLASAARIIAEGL

C=CC1=C(C)c2cc3[n-]c(cc4nc(cc5[n-]c(cc1n2)c(C)c5CCC(=O)O)C(CCC(=O)O)=C4C)c(C)c3C=C.[Cl-].[Fe+3] [Hemin(Free), hemin chloride]
retention of catalytic ability during reaction ([1]; 15 minutes course, water buffer and toluene): lost most catalytic ability after 5 min
kcat in buffer ([1]; buffer (0.01 M, pH 7.4, phosphate)): 0.04 s⁻¹
kcat in toluene ([1]; toluene): 0.045 s⁻¹

O=C(Cc1ccc2ccccc2c1)NC1C(O)OC(CO)C(O)C1O [Nap-D-Glucosamine]
ability to gel water / form hydrogel [2]: fail to form supramolecular hydrogels

O=C(Cc1ccc2ccccc2c1)NC(Cc1ccccc1)C(=O)NC(Cc1ccccc1)C(=O)NC1C(O)OC(CO)C(O)C1O [Nap-L-Phe-L-Phe-D-Glucosamine]
ability to gel water / form hydrogel [2]: fail to form supramolecular hydrogels

C[C@H](NC(=O)CNC(=O)Cc1cccc2ccccc12)C(=O)NCC(=O)N[C@@H](C)C(=O)N[C@@H](CO)C(=O)O [Naph-GAGAS] ({Acetyl(1-naphthyl)}-GAGAS-OH)
solubility in water [3]: soluble in water even under low pH and high concentration

CC(C)[C@H](NC(=O)CNC(=O)Cc1cccc2ccccc12)C(=O)NCC(=O)N[C@H](C(=O)N1CCC[C@H]1C(=O)O)C(C)C [Naph-GVGVP] ({Acetyl(1-naphthyl)}-GVGVP-OH)
solubility in water [3]: either dissolves in water at a pH higher than 4 or becomes a suspension at a lower pH

NCCC(O)(P(=O)(O)O)P(=O)(O)O [Pamidronate disodium]
minimum inhibition concentration (acid phosphatase): 33 mM

NCC(=O)N[C@@H]1C(=O)N2C(C(=O)O)=C(CSCCNC(=O)[C@H](Cc3ccccc3)NC(=O)[C@H](Cc3ccccc3)NC(=O)Cc3ccc4ccccc4c3)CS[C@H]12 [Precursor 3]
Conversion (%) [4]: <0.5%
Conversion (%) ([4]; listed as precursor 3): < 0.5%
Gelation ([5]; precursor 3 0.35 wt %): + (Gels form in less than 2 hours)
Conversion (%) [5, 11]: 99.7%
Gelation ([6]; precursor 3 0.35 wt %): + (Gels form in less than 2 hours)
Conversion (%) [6, 11]: 99.5%
Conversion (%) [7]: 5.8%
Gelation ([8]; precursor 3 0.35 wt %): + (Gels form in less than 2 hours)
Conversion (%) [8, 11]: 65.2%
Gelation ([9]; precursor 3 0.35 wt %): + (Gels form in less than 2 hours)
Conversion (%) [9, 11]: 84.3%
Conversion (%) [10]: <0.5%
Conversion (%) ([10]; listed as precursor 3): < 0.5%
start of hydrogelation (dynamic time sweep) (β-lactamase; after addition of the β-lactamases): about 22 minutes
precursor 3 transformed into 1 (HPLC) (β-lactamase; one hour after addition of β-lactamase, room temperature): 49.0%
conversion of 3 to 1 (HPLC) (β-lactamase; β-lactamase and its inhibitor (clavulanic acid), after 12 hours): 3.4%

CC(C)[C@H](NC(=O)CCCc1ccc2ccc3cccc4ccc1c2c34)C(=O)N[C@@H](Cc1ccc(O)cc1)C(=O)NCC(=O)NCC(=O)NCC(=O)O [Pyrene-VYGGG] ({Butanoyl(4-pyren-1-yl)}-VYGGG-OH)
solubility in water [3]: insoluble in water even under basic conditions

[Zn+2] [Zn^2+]
minimum inhibition concentration (acid phosphatase): 0.33 mM

O=C(O)[C@H]1/C(=C/CO)O[C@@H]2CC(=O)N21 [clavulanic acid, reference compound]
hydrogel formation with β-lactamase and inhibitor (β-lactamase; precursor 3 added to β-lactamase and inhibitor): failed to yield a hydrogel

[Na+].[Na+].[Na+].[O]=[V]([O-])([O-])[O-] [sodium orthovanadate]
minimum inhibition concentration (acid phosphatase): 3.3 mM

Source: patent US20070224273A1, “Multifunctional Supramolecular Hydrogels as Biomaterials” (priority 2004, published 2007)
